Experimental data as given in the supplement of paper PMC11451515.

Test system: SEM cells
Test: cell viability relative to DMSO control; higher = less cytotoxic
Conditions: 48 h
Method in brief: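 NOMO1, SEM and P12-Ichikawa leukemia cells spent at least four passages adapting to each medium before use. They were seeded at 500 cells/well (NOMO1, SEM) or 1000 cells/well (P12-Ichikawa) in 5 μl in 1536-well plates and pin-dosed with library compounds in DMSO at 11 threefold steps from 47 μM down to 0.79 nM. After 48 h at 37°C, CellTiter-Glo One luminescence was read. Viability is reported as a percentage of the DMSO wells on each plate, with cell-free wells as background.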

[1] = HPLM + 10% dialyzed FBS, 0.000781 µM
[2] = HPLM + 10% dialyzed FBS, 0.00234 µM
[3] = HPLM + 10% dialyzed FBS, 0.00702 µM
[4] = HPLM + 10% dialyzed FBS, 0.0211 µM
[5] = HPLM + 10% dialyzed FBS, 0.0632 µM
[6] = HPLM + 10% dialyzed FBS, 0.19 µM
[7] = HPLM + 10% dialyzed FBS, 0.569 µM
[8] = HPLM + 10% dialyzed FBS, 1.71 µM
[9] = HPLM + 10% dialyzed FBS, 5.12 µM
[10] = HPLM + 10% dialyzed FBS, 15.4 µM
[11] = HPLM + 10% dialyzed FBS, 46.1 µM
[12] = RPMI 5 mM glucose + 10% FBS, 0.000781 µM
[13] = RPMI 5 mM glucose + 10% FBS, 0.00234 µM
[14] = RPMI 5 mM glucose + 10% FBS, 0.00702 µM
[15] = RPMI 5 mM glucose + 10% FBS, 0.0211 µM
[16] = RPMI 5 mM glucose + 10% FBS, 0.0632 µM
[17] = RPMI 5 mM glucose + 10% FBS, 0.19 µM
[18] = RPMI 5 mM glucose + 10% FBS, 0.569 µM
[19] = RPMI 5 mM glucose + 10% FBS, 1.71 µM
[20] = RPMI 5 mM glucose + 10% FBS, 5.12 µM
[21] = RPMI 5 mM glucose + 10% FBS, 15.4 µM
[22] = RPMI 5 mM glucose + 10% FBS, 46.1 µM
[23] = RPMI 5 mM glucose + 10% dialyzed FBS, 0.000781 µM
[24] = RPMI 5 mM glucose + 10% dialyzed FBS, 0.00234 µM
[25] = RPMI 5 mM glucose + 10% dialyzed FBS, 0.00702 µM
[26] = RPMI 5 mM glucose + 10% dialyzed FBS, 0.0211 µM
[27] = RPMI 5 mM glucose + 10% dialyzed FBS, 0.0632 µM
[28] = RPMI 5 mM glucose + 10% dialyzed FBS, 0.19 µM
[29] = RPMI 5 mM glucose + 10% dialyzed FBS, 0.569 µM
[30] = RPMI 5 mM glucose + 10% dialyzed FBS, 1.71 µM
[31] = RPMI 5 mM glucose + 10% dialyzed FBS, 5.12 µM
[32] = RPMI 5 mM glucose + 10% dialyzed FBS, 15.4 µM
[33] = RPMI 5 mM glucose + 10% dialyzed FBS, 46.1 µM

Compound	cell viability [1]	cell viability [2]	cell viability [3]	cell viability [4]	cell viability [5]	cell viability [6]	cell viability [7]	cell viability [8]	cell viability [9]	cell viability [10]	cell viability [11]	cell viability [12]	cell viability [13]	cell viability [14]	cell viability [15]	cell viability [16]	cell viability [17]	cell viability [18]	cell viability [19]	cell viability [20]	cell viability [21]	cell viability [22]	cell viability [23]	cell viability [24]	cell viability [25]	cell viability [26]	cell viability [27]	cell viability [28]	cell viability [29]	cell viability [30]	cell viability [31]	cell viability [32]	cell viability [33]
COc1ccccc1N1CCN(CC(O)COc2cccc3ccccc23)CC1 (stereo unspecified)	62.9%	116%	124%	131%	136%	119%	111%	108%	121%	109%	88.8%	–	–	–	–	–	–	–	–	–	–	–	–	–	–	–	–	–	–	–	–	–	–
Cc1nc(C(=O)NCC(=O)O)c(O)c2ccc(Oc3ccccc3)cc12	109%	109%	115%	112%	116%	108%	99.5%	115%	92.8%	102%	112%	101%	108%	112%	115%	103%	99.4%	95.7%	94.8%	104%	108%	99.2%	113%	112%	123%	116%	119%	112%	113%	113%	103%	115%	122%
O=C1N\N=C(\C[C@@H]2CCN(C2)C(=O)C3CC3)N1C4=CC=C(C=C4)C5=CC=C6OC=CC6=C5	77.5%	76.9%	80.2%	85.4%	70.8%	61.7%	78.5%	71.3%	77.8%	37.1%	45.6%	109%	116%	120%	107%	113%	76.7%	110%	97.1%	125%	64.3%	51.9%	73.3%	65%	79.9%	84.3%	81.5%	56.5%	80.1%	82.3%	96.6%	46.5%	31.7%
COc1cc([C@@H]2c3cc4c(cc3[C@@H](O[C@@H]3O[C@@H]5CO[C@@H](C)O[C@H]5[C@H](O)[C@H]3O)[C@H]3COC(=O)[C@H]23)OCO4)cc(OC)c1O	82.6%	71.6%	81.1%	74.9%	50.7%	52.7%	49.2%	16.1%	8.68%	3.97%	2.91%	99.8%	96.1%	91.8%	70.1%	46.4%	59.6%	45.1%	10.9%	10.3%	3.77%	3.27%	70.3%	76%	76.1%	64.1%	37%	35.8%	34.8%	8.52%	5.58%	3.22%	2.28%
COC(=O)[C@@H]1CC2=CC(=O)CC[C@]2(C)[C@@]23O[C@@H]2C[C@@]2(C)[C@@H](CC[C@@]24CCC(=O)O4)[C@H]13	87.9%	88.3%	94.7%	100%	96.1%	121%	113%	115%	115%	102%	111%	105%	108%	113%	98.1%	116%	115%	97.4%	114%	122%	106%	121%	87.5%	93%	112%	101%	113%	107%	119%	116%	122%	130%	125%
CN1C(=O)C(=C/2N(C(=O)N(C3CC3)C(=O)C2=C1/NC4=CC=C(I)C=C4F)C5=CC=CC(=C5)NC(C)=O)\C	–	–	–	–	–	–	–	–	–	–	–	107%	129%	118%	129%	136%	114%	85.6%	60.1%	7.99%	4.7%	4.99%	–	–	–	–	–	–	–	–	–	–	–
NC(=O)c1ncn([C@@H]2O[C@H](CO)[C@@H](O)[C@H]2O)c1N	–	–	–	–	–	–	–	–	–	–	–	81.8%	95.1%	89.9%	72.7%	95%	83.1%	91.7%	68%	66.6%	69.7%	18.9%	120%	113%	116%	120%	136%	109%	121%	115%	122%	114%	31.5%
CC1(C)CCC(=C(\C1)C2=CC=C(Cl)C=C2)/CN3CCN(CC3)C4=CC(=C(C=C4)C(=O)N[S+]([O-])(=O)C5=CC=C(NCC6CCOCC6)C(=C5)[N+]([O-])=O)OC7=CN=C8[NH]C=CC8=C7	104%	95.1%	99.3%	62.7%	43.7%	12.6%	8.25%	7.7%	7.49%	7.18%	5.72%	124%	105%	123%	76.2%	70%	20.3%	11.1%	7.11%	6.79%	5.86%	4.71%	102%	90.8%	88.3%	53.8%	38%	16.5%	8.07%	6.59%	6.67%	5.3%	4.75%
CN(C)c1ccccc1CN1CCCN(Cc2ccccc2N(C)C)C1c1ccncc1	81.3%	91.2%	86.8%	23%	95.2%	94.9%	92.5%	92.6%	112%	97.1%	83.3%	75.5%	85.3%	102%	15%	104%	99.3%	101%	93.9%	93.4%	5.51%	49.4%	73.4%	79.7%	95.1%	18.1%	117%	111%	113%	98.3%	98.2%	87.8%	80%
CC/C(=C(\c1ccccc1)c1ccc(OCCN(C)C)cc1)c1ccccc1	80.9%	97.6%	107%	103%	74.6%	102%	94%	108%	96.3%	86.2%	16.8%	98.1%	99.7%	95.8%	93.8%	66.7%	95%	99.2%	99.9%	90.5%	91.6%	12.5%	87.4%	87.2%	102%	95.2%	81.7%	115%	99.4%	96.3%	95.2%	93.9%	13%
CCCCCCCN(CC)CCCC(O)c1ccc(NS(C)(=O)=O)cc1.CCCCCCCN(CC)CCCC(O)c1ccc(NS(C)(=O)=O)cc1.O=C(O)/C=C/C(=O)O (stereo unspecified)	88.9%	93.2%	95.1%	104%	74.8%	109%	96.7%	108%	97.7%	114%	15%	83.9%	102%	93.3%	90.7%	56.4%	95.4%	88.9%	122%	96.5%	94%	10.3%	87.4%	99.9%	105%	103%	74.6%	90.6%	112%	114%	94.2%	91.9%	11.6%
O=C1CCc2cc(OCCCCc3nnnn3C3CCCCC3)ccc2N1	79.2%	83.1%	101%	92%	92.9%	83.8%	88.8%	96.2%	97.8%	104%	99.3%	88.8%	88.8%	92%	91.5%	88.7%	75.7%	107%	104%	89.2%	104%	81.3%	80.1%	90%	100%	86.2%	78.5%	87.6%	92.2%	92.7%	101%	90.6%	88.2%
CO[C@H]1C[C@H]2OC[C@@]2(OC(C)=O)[C@H]3[C@H](OC(=O)C4=CC=CC=C4)[C@]5(O)C[C@H](OC(=O)[C@H](O)[C@@H](NC(=O)OC(C)(C)C)C6=CC=CC=C6)/C(=C(/[C@@H](OC)C(=O)[C@]13C)C5(C)C)C	61.3%	70.2%	80.6%	15.4%	16.5%	17.7%	16%	15%	18.1%	13.6%	15.8%	89.4%	96.1%	11.1%	9.9%	12.3%	14%	11.2%	15.1%	12.7%	13.2%	13.4%	64%	61.2%	80.6%	11.2%	13.9%	13.5%	14.1%	13.7%	13.2%	11.6%	11.8%
CN1C(=O)\C(=C/C2=C1N=C(NC3CCOCC3)N=C2)OC4=C(F)C=C(F)C=C4	99.6%	97.4%	98.4%	102%	99.1%	90.3%	93.3%	92%	78.9%	92.7%	45.6%	112%	100%	125%	112%	105%	112%	121%	105%	97.1%	115%	45.6%	93.3%	106%	94.8%	68.2%	93.8%	96.9%	95.9%	92%	96.2%	88.3%	42.9%
CNC(=O)c1ccccc1Sc1ccc2c(/C=C/c3ccccn3)n[nH]c2c1	119%	109%	119%	116%	120%	118%	114%	115%	73.4%	33.5%	30.5%	–	–	–	–	–	–	–	–	–	–	–	–	–	–	–	–	–	–	–	–	–	–
NC(=O)Cc1cccc(C(=O)c2ccccc2)c1N	73%	99.4%	96.9%	39.7%	113%	115%	109%	99.6%	96%	101%	104%	95.7%	38.4%	90.7%	33.4%	101%	95.2%	95%	107%	95.5%	88.8%	85.1%	44.3%	78.3%	101%	43.1%	97.4%	107%	103%	112%	95.4%	105%	85.2%
